From patent publication US4766114A, “Tricyclic compound called 5-((3-chloro-6-methyl-5,5-dioxo-6,11-dihydro-dibenzo (c,f) (1,2)thiazepin-11-yl)-amino) pentanoic acid” (ADIR Et Compagnie, priority 1986, dated 1988)
Like-named read-outs stand apart in the source and are kept apart here.

Assays:
[1] = system: reserpine-induced hypothermia in the mouse; test: Effects on reserpine-induced hypothermia in the mouse; assay type: in vivo, mouse (NMRI); details: 50 mg.kg^-1 IP
Protocol: This study was carried out on experimental groups of 10 NMRI mice (IFFA-CREDO) fasted for 18 hours. […] One hour later, all the animals were given an intraperitoneal injection of 2 mg.kg^-1 of reserpine. Hypothermia was evaluated 4 hours after the injection of reserpine by measuring the rectal temperature using an electric thermometer.

[2] = system: tetrabenazine-induced ptosis in the mouse; test: Effects on tetrabenazine-induced ptosis in the mouse; assay type: in vivo, mouse (male CD)
Protocol: Male CD mice (Charles River), of average weight 23 g, were distributed in groups of 12 animals. […] The dose of products tested was 25 mg.kg^-1. The animals were observed individually 5, 25, 35 and 55 minutes after the injection of the tetrabenazine and the intensity of the ptosis was evaluated using a 0 to 4 rating scale.

[3] = system: aggressivity of isolated mice; test: Effects on the aggressivity of isolated mice; assay type: in vivo, mouse (male CD); details: for % OF PROTECTED COUPLES (no attack) / MEAN NUMBER OF ATTACKS ± SD: 30 minutes before test; for % OF PROTECTED COUPLES (no attack): 10 couples; for MEAN NUMBER OF ATTACKS ± SD: 3 minute test
Protocol: The male CD mice (Charles RIVER) used in this study were housed in small (18×10×10 cm) individual cages with the walls painted black, with one mouse per cage, for several months, at a constant temperature of 21° C. and in a light-darkness cycle of 12 hours. The average weight of the mice at the time of the study was 45 g.
Each experimental group comprised 10 couples of mice previously selected for their aggressivity. The aggressivity test was carried out on non-fasting animals. The "intruding" mouse of each couple was placed in the cage containing the other mouse for a 3 minute period.
The product was administered by the intraperitoneal route, 30 minutes before the test.

antidepressant activity [4] = test: Antidepressant activity (standard pharmacological tests); assay type: in vivo
Description: The standard pharmacological tests used to evaluate the antidepressant activity of new chemical compounds, described, in particular, in Enna S. J. et al. "Antidepressants: Neurochemical Behavioral, and Clinical Perspectives" Raven Press N.Y. 1981, p.

[5] = system: reserpine-induced ptosis in the mouse; test: Effects on reserpine-induced ptosis in the mouse; assay type: in vivo, mouse (male NMRI); details: 25 mg.kg^-1 IP, reserpine 2 mg.kg^-1 IV
Protocol: This experiment was carried out on groups of 20 male NMRI mice (IFFA-CREDO), with an average weight of 20±2 g. […] GOURET et al., in J. Pharmacol., 1977, 8, (3) p. 333-350.
One hour after the injection of the reserpine, the animals were placed on a 5 cm×5 cm square, wood platform for 20 seconds. Ptosis was considered to be positive if the animal's eyes remained shut during the 20 seconds after it was placed on the platform. On the other hand, the animal was considered to be protected if the eyes were not completely closed during the 20 seconds following the moment when it was placed on the platform.

antidepressant activity [6] = details: French Pat. No. 71.32197; cited from earlier work
[7] = 20 mg.kg^-1 IP, controls 0%, S = statistically significant change

CN1c2ccccc2C(NCCCCC(=O)O)c2ccc(Cl)cc2S1(=O)=O (stereo not shown) [compound of the formula I, 5-[(3-chloro-6-methyl-5,5-dioxo-6,11-dihydro-dibenzo(c,f)(1,2)thiazepin-11-yl)-amino]pentanoic acid]
antagonism of reserpine-induced hypothermia (in words) [1]: much higher
FINAL TEMPERATURES MEAN ± SD ([1]; rectal temperature 4 hours after reserpine 2 mg.kg^-1 IP, controls 24.7 ± 0.88): 30.9 ± 3.7
activity against tetrabenazine-induced ptosis compared with TAHA (in words) ([2]; 25 mg.kg^-1 IP): much greater and long-lasting activity than TAHA
% controls (% change of the mean ptosis scores in comparison with the controls), 5 MINUTES ([2]; 25 mg.kg^-1 IP, 5 minutes after tetrabenazine 20 mg.kg^-1): -69%
MEAN VALUE OF THE PTOSIS INTENSITY SCORE ± SD, 5 MINUTES ([2]; 25 mg.kg^-1 IP, 5 minutes after tetrabenazine 20 mg.kg^-1, 0 to 4 scale, controls 1.33 ± 0.65): 0.42 ± 0.51
% controls (% change of the mean ptosis scores in comparison with the controls), 25 MINUTES ([2]; 25 mg.kg^-1 IP, 25 minutes after tetrabenazine 20 mg.kg^-1): -32%
% controls (% change of the mean ptosis scores in comparison with the controls), 35 MINUTES ([2]; 25 mg.kg^-1 IP, 35 minutes after tetrabenazine 20 mg.kg^-1): -35%
MEAN VALUE OF THE PTOSIS INTENSITY SCORE ± SD, 35 MINUTES ([2]; 25 mg.kg^-1 IP, 35 minutes after tetrabenazine 20 mg.kg^-1, 0 to 4 scale, controls 2.83 ± 0.58): 1.83 ± 0.39
MEAN VALUE OF THE PTOSIS INTENSITY SCORE ± SD, 55 MINUTES ([2]; 25 mg.kg^-1 IP, 55 minutes after tetrabenazine 20 mg.kg^-1, 0 to 4 scale, controls 3.08 ± 0.51): 2.42 ± 0.67
% controls (% change of the mean ptosis scores in comparison with the controls), 55 MINUTES ([2]; 25 mg.kg^-1 IP, 55 minutes after tetrabenazine 20 mg.kg^-1, NS = Non significant): -22%
MEAN VALUE OF THE PTOSIS INTENSITY SCORE ± SD, 25 MINUTES ([2]; mouse, in vivo, ip): 1.75 ± 0.45
% OF PROTECTED COUPLES (no attack) ([3]; 10 mg.kg^-1 IP, controls 10%): 20%
MEAN NUMBER OF ATTACKS ± SD ([3]; 10 mg.kg^-1 IP, water controls 6.7 ± 4.7 (ATAH), 5.4 ± 2.8 (formula I)): 7.2 ± 5.9
anti-aggressive effect (in words) ([3]; 20 mg.kg^-1 IP): clear anti-aggressive effect
% OF PROTECTED COUPLES (no attack) [3, 7]: 60%
anti-aggressive activity compared with TAHA (in words) ([3]; isolated mice, IP): much greater than that of TAHA
antidepressant activity (in words) (antidepressant activity [4]): much greater antidepressant activity
antidepressant activity (in words) (antidepressant activity [4]; listed as 5-[(3-chloro-6-methyl-5,5-dioxo-6,11-dihydrodibenzo(c,f)(1,2)thiazepin-11-yl)-a): very potent antidepressant activity
antagonism of reserpine-induced ptosis (in words) [5]: much more active
animals protected from ptosis ([5]; 20 male NMRI mice per group): 53%

CN1c2ccccc2C(NCCCCCCC(=O)O)c2ccc(Cl)cc2S1(=O)=O (stereo not shown) [TAHA, 7-[(3-chloro-6-methyl-5,5-dioxo-6,11-dihydro-dibenzo(c,f)(1,2)thiazepin-11-yl)-amino]heptanoic acid, reference compound]
% OF PROTECTED COUPLES (no attack) ([3]; 10 mg.kg^-1 IP, controls 10%): 10%
anti-aggressive effect (in words) ([3]; 20 mg.kg^-1 IP): clear anti-aggressive effect
% OF PROTECTED COUPLES (no attack) [3, 7]: 40%
MEAN NUMBER OF ATTACKS ± SD ([3]; 20 mg.kg^-1 IP, water controls 8.3 ± 6.0): 3.7 ± 4.9
antidepressant properties (in words) (antidepressant activity [6]): antidepressant properties
